The results in this text go back to ChEMBL document CHEMBL3046936, “In vitro inhibition studies of phytoene desaturase by bleaching ketomorpholine derivatives” (J Agric Food Chem, 2001).

The target of assay [1] is 15-cis-phytoene desaturase (Synechococcus elongatus (strain PCC 7942) (Anacystis nidulans R2), UniProt P26294). As to the kind of experiment: Inhibition of Synechococcus PCC 7942 phytoene desaturase expressed in Escherichia coli JM 101 by HPLC analysis. The settings on record: read-out: I50.
Sequence of 15-cis-phytoene desaturase (P26294 whole entry): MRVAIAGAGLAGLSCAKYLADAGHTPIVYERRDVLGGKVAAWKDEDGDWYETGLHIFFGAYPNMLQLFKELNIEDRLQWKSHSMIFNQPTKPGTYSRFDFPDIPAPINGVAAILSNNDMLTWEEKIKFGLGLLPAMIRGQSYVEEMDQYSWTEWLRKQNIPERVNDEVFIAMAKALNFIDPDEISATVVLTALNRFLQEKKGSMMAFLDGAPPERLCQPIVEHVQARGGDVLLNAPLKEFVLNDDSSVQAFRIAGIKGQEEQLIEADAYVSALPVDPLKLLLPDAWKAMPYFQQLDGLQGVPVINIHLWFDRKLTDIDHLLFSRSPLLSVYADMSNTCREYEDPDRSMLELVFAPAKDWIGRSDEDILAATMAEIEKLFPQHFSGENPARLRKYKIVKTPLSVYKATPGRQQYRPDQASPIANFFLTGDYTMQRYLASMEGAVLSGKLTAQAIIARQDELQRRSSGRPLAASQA
The test system of another assay is Xanthium strumarium. Kind of assay: Pre-emergence herbicidal activity against Xanthium strumarium (cocklebur) after 20 days. Type of assay: functional.
Another assay concerns Chenopodium album. As to the kind of experiment: Pre-emergence herbicidal activity against Chenopodium album after 20 days. Type of assay: functional.
A further assay has as its system Abutilon theophrasti. Kind of assay: Preemergence herbicidal activity against Abutilon theophrasti (velvetleaf) after 20 days. Type of assay: functional.
The test system of a further assay is Galium aparine. As to the kind of experiment: Pre-emergence herbicidal activity against Galium aparine after 20 days. It counts as functional.
The test system of another assay is Ipomoea hederacea. Kind of assay: Pre-emergence herbicidal activity against Ipomoea hederacea (ivy-leaved morning glory) after 20 days. It counts as functional.
The nature of assay [2]: Ratio of ED50 for Xanthium strumarium to ED50 for Galium aparine. Type of assay: functional.
A further assay concerns Senna obtusifolia. Kind of assay: Preemergence herbicidal activity against Senna obtusifolia (sicklepod) after 20 days. It counts as functional.
The subject of a further assay is Amaranthus retroflexus. As to the kind of experiment: Pre-emergence herbicidal activity against Amaranthus retroflexus after 20 days. Type of assay: functional.
The nature of assay [3]: Ratio of ED50 for Xanthium strumarium to ED50 for Cassia obtusifolia. Type of assay: functional.
Assay [4] is described as follows: Ratio of ED50 for Xanthium strumarium to ED50 for Chenopodium album. Type of assay: functional.
In assay [5] the target is 15-cis-phytoene desaturase (Synechococcus elongatus (strain PCC 7942) (Anacystis nidulans R2)) (UniProt P26294). As to the kind of experiment: Inhibition of Synechococcus PCC 7942 phytoene desaturase expressed in Escherichia coli JM 101 assessed as decrease in zeta-carotene content by HPLC analysis.
Sequence of 15-cis-phytoene desaturase (Synechococcus elongatus (strain PCC 7942) (Anacystis nidulans R2)) (P26294 whole entry): as above
Assay [6] shares this target. Kind of assay: Non-competitive inhibition of Synechococcus PCC 7942 phytoene desaturase expressed in Escherichia coli JM 101 by Lineweaver-Burk plot analysis.

SMILES strings stand for the structures. Calls of active or inactive are those of the source. The rule behind the calls is not given here.

Take `CN1CCOC(Cc2cccc(C(F)(F)F)c2)C1=O` (racemic): the IC50 in [1] is more than 100 µM. For the same molecule, the ED50 was found to be 8900 g/ha in the assay on Xanthium strumarium; 450 g/ha in the assay on Chenopodium album; 1400 g/ha in the assay on Abutilon theophrasti; 500 g/ha in the assay on Galium aparine; 500 g/ha with Ipomoea hederacea; 500 g/ha with Senna obtusifolia. For the same molecule, the ED50 in the assay with Amaranthus retroflexus turned out to be 1250 g/ha. Further, the Ratio ED50 in [2], in assay [3] and in assay [4] was 15 throughout.
For the molecule `CN1CCOC(c2cccc(C(F)(F)F)c2)C1=O` (racemic), the IC50 in [1] was more than 100 µM. In addition, the ED50 in the assay with Xanthium strumarium is on record as 9500 g/ha; in the assay on Chenopodium album, 10000 g/ha; in the assay on Abutilon theophrasti it was 5500 g/ha; with Galium aparine, more than 10000 g/ha; in the assay with Ipomoea hederacea, more than 10000 g/ha; in the assay on Senna obtusifolia it was more than 10000 g/ha. Moreover, the ED50 in the assay with Amaranthus retroflexus was more than 10000 g/ha.
For the molecule `C[C@H]1CO[C@@H](Cc2cccc(C(F)(F)F)c2)C(=O)N1`, the IC50 in assay [1] came to 3.8 µM. Besides, the ED50 is on record as 2300 g/ha in the assay with Xanthium strumarium; 500 g/ha in the assay on Chenopodium album; 500 g/ha with Abutilon theophrasti; 1500 g/ha in the assay on Galium aparine; 1500 g/ha with Ipomoea hederacea; 1550 g/ha in the assay on Senna obtusifolia. In the assay on Amaranthus retroflexus, this molecule yielded an ED50 of 600 g/ha.
For the molecule `O=C1NCCOC1Sc1cccc(C(F)(F)F)c1` (racemic), the IC50 in [1] is 8.5 µM. In addition, the ED50 in the assay with Xanthium strumarium is listed as more than 10000 g/ha; in the assay on Chenopodium album it was 850 g/ha; in the assay with Abutilon theophrasti, 1000 g/ha; in the assay with Galium aparine, 4800 g/ha; in the assay on Ipomoea hederacea, 4800 g/ha; in the assay on Senna obtusifolia, 2500 g/ha. The same molecule showed an ED50 in the assay on Amaranthus retroflexus of 780 g/ha.
With `O=C1NCCOC1Cc1cccc(C(F)(F)F)c1` (racemic), the IC50 in assay [1] came to 6.5 µM. Besides, the ED50 with Xanthium strumarium is reported as 800 g/ha; in the assay with Chenopodium album, 140 g/ha; in the assay on Abutilon theophrasti, 150 g/ha; in the assay on Galium aparine, 380 g/ha; with Ipomoea hederacea, 380 g/ha; with Senna obtusifolia it was 350 g/ha. The molecule also registered an ED50 in the assay on Amaranthus retroflexus of 80 g/ha.
Turning to `C[C@@H]1CO[C@@H](Cc2cccc(C(F)(F)F)c2)C(=O)N1`, the IC50 in [1] was 19 µM. Besides, the ED50 is more than 10000 g/ha in the assay on Xanthium strumarium; more than 10000 g/ha in the assay on Chenopodium album; 4000 g/ha with Galium aparine; 4000 g/ha with Ipomoea hederacea; more than 10000 g/ha in the assay on Senna obtusifolia; more than 10000 g/ha in the assay with Amaranthus retroflexus.
Regarding `C[C@H]1CO[C@H](Cc2cccc(C(F)(F)F)c2)C(=O)N1`, in assay [1], the IC50 stood at 0.17 µM. Besides, the inhibition entry in assay [5] and in assay [6] was “Active” throughout. Further, the ED50 in the assay with Xanthium strumarium amounted to 340 g/ha; with Chenopodium album, 25 g/ha; in the assay with Abutilon theophrasti, 50 g/ha; in the assay on Galium aparine it was 130 g/ha; in the assay with Ipomoea hederacea, 130 g/ha; in the assay on Senna obtusifolia, 200 g/ha. The same molecule returned an ED50 in the assay on Amaranthus retroflexus of 50 g/ha.
`O=C1NCCOC1SCc1cccc(C(F)(F)F)c1` (racemic): the IC50 in assay [1] came out at 3.2 µM. The ED50 in the assay on Xanthium strumarium, in the assay with Chenopodium album, in the assay on Abutilon theophrasti, with Galium aparine, in the assay on Ipomoea hederacea and in the assay with Senna obtusifolia was more than 10000 g/ha each time. This molecule also showed an ED50 in the assay with Amaranthus retroflexus of more than 10000 g/ha.
